Earlier results, collected in patent US9795686B2, “Biomaterials comprising hyaluronic acid binding peptides and bifunctional biopolymer molecules for hyaluronic acid retention and tissue engineering applications” (THE JOHNS HOPKINS UNIVERSITY, priority 2012, dated 2017).

Details: previously observed; read-out: Kd, affinity of HABPep for HA

For GAHWQFNALTVR [HABPep], which Kd is on record?
The Kd was 1.65 µM.
